Source: ChEMBL document CHEMBL1149940, “Conformationally constrained analogues of diacylglycerol. 6. Changes in PK-C binding affinity for 3-O-acyl-2-deoxy-L-ribonolactones bearing different acyl chains” (Bioorg Med Chem Lett, 1994)

How the values were obtained:
Mus musculus = species on record: Mus musculus; assay: Inhibition of [3H]phorbol-12,13-dibutyrate binding to mouse brain protein kinase C at 100 ug/mL
[1] = Inhibition of [3H]phorbol-12,13-dibutyrate binding to mouse brain protein kinase C
[2] = Inhibition of [3H]phorbol-12,13-dibutyrate binding to mouse brain protein kinase C (calculated value from percent inhibition at 100 ug/mL)
[3] = Logarithm of water solubility was reported; format: ADME; settings: buffer
[4] = Inhibition of [3H]phorbol-12,13-dibutyrate binding to mouse brain protein kinase C (No inhibition at >1700 uM)

SMILES | inhibition (Mus musculus) [%] | Ki [1] [µM] | log S [3] [M/m3] | other results
COc1ccc(C(=O)O[C@H]2CC(=O)O[C@@H]2CO)cc1 | 2 |  |  | 
CCCCCCCc1ccc(C(=O)O[C@H]2CC(=O)O[C@@H]2CO)cc1 |  | 8.9 |  | 
O=C1C[C@@H](OC(=O)Cc2ccccc2)[C@H](CO)O1 |  |  | 1.09 | Ki [2]: 222 µM
O=C(/C=C/c1ccccc1)O[C@H]1CC(=O)O[C@@H]1CO | 18.5 |  |  | 
CCc1ccc(C(=O)O[C@H]2CC(=O)O[C@@H]2CO)cc1 | 21 |  |  | 
O=C1C[C@H](OC(=O)c2ccccc2)[C@@H](CO)O1 | 9.5 |  |  | 
O=C1C[C@@H](OC(=O)c2cccc3ccccc23)[C@H](CO)O1 |  | 23.5 | -0.18 | 
O=C1C[C@H](OC(=O)c2cccc3ccccc23)[C@@H](CO)O1 | 30 |  |  | 
CCCCCCCCCCCCCCCCCC(=O)O[C@@H]1CC(=O)O[C@H]1CO |  | 8.69 | -4.7 | 
CCCCCCCc1ccc(C(=O)O[C@@H]2CC(=O)O[C@H]2CO)cc1 |  | 3.2 | -2.05 | 
CCCCCCCCCCC(CCCC)CCCCCCC(=O)O[C@@H]1CC(=O)O[C@H]1CO (some centres undefined) |  | 2.45 | -6.46 | 
CC(=O)O[C@@H]1CC(=O)O[C@H]1CO |  |  | 3.62 | Ki [4]: Not Active
CCCCCCCC/C=C/CCCCCCCC(=O)O[C@@H]1CC(=O)O[C@H]1CO |  | 1.33 | -3.9 | 
CCCCCCCCCCCCCC(=O)O[C@H]1CC(=O)O[C@@H]1CO |  | 5.3 |  | 
O=C(Cc1ccccc1)O[C@H]1CC(=O)O[C@@H]1CO | 29 |  |  | 
O=C1C[C@H](OC(=O)c2ccc(-c3ccccc3)cc2)[C@@H](CO)O1 | 6.5 |  |  | 
CCCCCCCCCCC(C)CCCCCCC(=O)O[C@@H]1CC(=O)O[C@H]1CO (some centres undefined) |  | 2.39 | -4.9 | 
CCCCCC(=O)O[C@@H]1CC(=O)O[C@H]1CO |  | 188 | 1.54 | 
O=C1C[C@H](OC(=O)c2ccc3ccccc3c2)[C@@H](CO)O1 | 28 |  |  | 
CCCCCCCCCCCCCC(=O)O[C@@H]1CC(=O)O[C@H]1CO |  | 2.53 | -2.62 | 
CCCCCCCCCC(=O)O[C@@H]1CC(=O)O[C@H]1CO |  | 4.06 | -0.54 | 
CCCCCCCCCCC(CCCCCCC(=O)O[C@@H]1CC(=O)O[C@H]1CO)c1ccccc1 (some centres undefined) |  | 1.21 | -6.91 | 
